Results from PMC12049818, “Identification of NUV-244 as a PNPLA3 I148M degrading small molecule” (iScience, 2025).

Key:
[1] = biological target: T1, PNPLA3-tagRFP (Homo sapiens, UniProt Q9NST1); assay: Huh7 PNPLA3-tagRFP (WT) reduction on lipid droplets; format: cell-based; settings: representative dose-response curve, Figure 3B
T1 construct: host or cells: Huh7
T1 sequence (Q9NST1 1-481): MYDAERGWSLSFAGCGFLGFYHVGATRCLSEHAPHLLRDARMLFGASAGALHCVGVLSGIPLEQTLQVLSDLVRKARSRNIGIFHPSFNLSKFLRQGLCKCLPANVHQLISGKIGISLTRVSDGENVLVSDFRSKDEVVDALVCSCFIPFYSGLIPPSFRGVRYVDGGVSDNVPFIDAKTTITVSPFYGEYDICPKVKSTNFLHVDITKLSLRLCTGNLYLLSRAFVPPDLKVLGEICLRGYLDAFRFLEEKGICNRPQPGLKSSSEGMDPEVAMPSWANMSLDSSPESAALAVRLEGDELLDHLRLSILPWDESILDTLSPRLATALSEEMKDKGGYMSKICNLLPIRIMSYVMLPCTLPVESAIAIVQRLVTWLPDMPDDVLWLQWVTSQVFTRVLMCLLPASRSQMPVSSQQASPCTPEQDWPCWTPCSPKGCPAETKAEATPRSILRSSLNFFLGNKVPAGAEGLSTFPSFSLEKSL
Procedure: To confirm activity, NUV-244 was resynthesized. […] Next, to evaluate the specificity against PNPLA3 WT, Huh7 cells expressing PNPLA3-tagRFP were generated (Figures 3A and S3A). Like the mutant, PNPLA3-tagRFP localizes to lipid droplets in Huh7 cells and NUV-244 dose-dependently leads to a decrease of PNPLA3-tagRFP with a similar potency as for the mutant (Figure 3B).
For dose-response cells were seeded at 4000 c/30 μl per well in 384 well plates (Revvity, Waltham, MA, USA, PhenoPlate 384-well microplate, #6057308) and stored in a 37°C incubator with 5% CO2 and 95% humidity overnight. Compounds, serially diluted, and DMSO controls were added, and cells were incubated for another 24h. […]
(§1) Images were analyzed using Harmony (Revvity) and MetaXpress software (Molecular Devices, USA) to quantify lipid droplet morphology and PNPLA3 I148M-tagRFP intensity.
(§2) Assay plates were evaluated based on Z’ scores (>0.6) and signal-to-background ratio (>12) using Genedata Screener® for HTS and Condoseo modules (Genedata, Switzerland). […] Automated image analysis routines were set up to quantify the number, morphology and intensity of nuclei, lipid droplets and the intensity of PNPLA3 I148M-tagRFP on lipid droplets. […]

[2] = tested on: Huh7 cells expressing PNPLA3 I148M-tagRFP; assay: Lipid droplet dispersion / normalization of lipid droplet morphology in Huh7 PNPLA3 I148M-tagRFP cells; format: cell-based, human
Description: During the HTS we observed that PNPLA3 I148M-tagRFP expression altered the morphology of lipid droplets compared to the Huh7 parental control cells. PNPLA3 I148M-tagRFP expression leads to clustering of large lipid droplets around the nucleus and a reduction of small cytoplasmic lipid droplets, which is reflected by changes (lowering) in the number of lipid droplets scorable by the lipid droplet detection algorithm per cell (Figures 4A and 4B, Video S1). Indeed, a role for PNPLA3 I148M in the regulation of lipid droplet morphology is known.[12]^,[13]^,[15]^,[16]^,[21]^,[33] We speculated that reduction of PNPLA3 I148M-tagRFP on lipid droplets of Huh7 cells should therefore restore lipid droplet morphology back to the WT situation in the parental cell line. For this we analyzed all hits at the retest stage in the primary assay. […]
as §1, §2

EC50 [1]: 213 nM
SMILES: Cc1cccc(Cc2nc(C)c(C(=O)Nc3cc(O)ccc3Cl)s2)c1 [NUV-244]
appearance of small mobile lipid droplets (time-lapse) ([2]; 5μM for 24h, Huh7 expressing PNPLA3 I148M): partially restore | EC50 ([2]; Homo sapiens, Huh-7, resynthesis, representative curve, Figure 4C, read-out: EC50 [M] Lipid droplet aggregates): 4.84e-07 M
